Measured values as given in patent US8802114B2, “Pharmaceutical compositions of iron for oral administration” (priority 2011, dated 2014).

Assays:
[1] = Sodium caprate (C10) solution compatibility of iron compounds, with centrifugation test for precipitation; format: physicochemical; settings: in 55 mg/mL sodium caprate (C10)
Description: A test for precipitation was carried out. The solution formulations were centrifuged initially at 1000 rpm for 5 minutes. […] They were further centrifuged at 5000 rpm for 5 minutes.

[2] = Solution stability of sodium EDTA Fe+3 chelate with sodium caprate (visual observation); format: physicochemical; settings: sodium caprate 55 mg/mL

| Compound | Sodium caprate solution compatibility (observation) [1] | Compatibility with sodium caprate formulation (pre-formulation) [2] |
| --- | --- | --- |
| NCC(=O)[O-].NCC(=O)[O-].[Fe+2] [Ferrous Bisglycinate (Ferrochel), Ferrous Bisglycinate] | precipitates in the presence of C10 | – |
| Ferrous Gluconate [Ferrous Gluconate FCC/USP*] | C10 incompatibility | – |
| O=C(O)CN(CCN(CC(=O)O)CC(=O)O)CC(=O)O.[Fe+3].[Na+] [sodium EDTA iron chelate, ethylenediaminetetraacetic acid ferric sodium] | – | no gross incompatibility |
